Non-standard residues stand in square brackets, D forms with d. Residues, ends and D or L forms follow the SMILES beside them. dPhe(4-NH2) = Nc1ccc(C[C@@H](N)C(=O)O)cc1; dPhe(4-Cl) = N[C@H](Cc1ccc(Cl)cc1)C(=O)O; Phe(4-NH2) = Nc1ccc(C[C@H](N)C(=O)O)cc1; d2Nal = N[C@H](Cc1ccc2ccccc2c1)C(=O)O; Lys(iPr) = CC(C)NCCCC[C@H](N)C(=O)O; d3Pal = N[C@H](Cc1cccnc1)C(=O)O
Tests used:
5-AR type 1 and 2 = assay: Dutasteride co-treatment with T in human hepatocyte culture; details: for Effect of dutasteride co-treatment on metabolite formation from T: p<0.01 for decreases
Description: (§1) A targeted metabolomics study was performed on previously collected samples from an oral T pharmacokinetics (PK) study (800 mg). T and its primary and secondary metabolites in serum were quantified, and PK data of these steroids were analyzed using the non-compartmental method. […] Additionally, T-metabolism study was also performed in human hepatocytes for 1 h. The media and cell pellets were collected for subsequent metabolomics and proteomics analyses, respectively. Effect of dutasteride treatment on androgen metabolome was also investigated, both in vivo and in vitro.

[1] = Oral testosterone pharmacokinetics and serum metabolite profile (LC-MS/MS) in men with acyline-induced experimental hypogonadism, with and without dutasteride; format: in vivo, human; details: for AUC0-24 h at T800, fold higher than with T200: T800 vs T200; for AUC 0-24 h / Cmax / Tmax / t½ / CL/F: serum; for CL/F: male, human, oral; for Average AUC0-24 h with dutasteride, % with respect to T alone: T200+D vs T200; for Average AUC0-24 h with dutasteride, % as compared to T alone: T800+D vs T800; for AUC0-24 h, fold higher as compared to T AUC0-24 h: human serum, 800 mg dose
Description: T emulsion in sesame oil, mixed with milk, was administered orally to human subjects with acyline-induced experimental hypogonadism. The blood samples were collected and the serum was isolated and stored in −80° C. Steroids and their metabolites were extracted from serum using protein precipitation followed by solid-phase extraction and analyzed by UPLC coupled with SCIEX 6500 MS/MS.
Clinical study design is discussed below. All subjects provided written, informed consent prior to any study procedures. The study was approved by the University of Washington (UW) Investigational Review Board Committee.
While study was conducted with 200, 400 and 800 mg T dose, only T200 and T800 were quantified. […] Samples were mixed for 1 min by vortex mixing, and then centrifuged for 10 min at 3500×g at 4° C. […] Samples (2 mL) were loaded onto the cartridges and flow through was discarded.
Data were acquired by Analyst 1.6 software.

UGT2B17 = target: T1, UGT2B17 (Homo sapiens, UniProt O75795); details: scaled by absolute UGT2B abundance in the intestine
T1 sequence (O75795 24-530): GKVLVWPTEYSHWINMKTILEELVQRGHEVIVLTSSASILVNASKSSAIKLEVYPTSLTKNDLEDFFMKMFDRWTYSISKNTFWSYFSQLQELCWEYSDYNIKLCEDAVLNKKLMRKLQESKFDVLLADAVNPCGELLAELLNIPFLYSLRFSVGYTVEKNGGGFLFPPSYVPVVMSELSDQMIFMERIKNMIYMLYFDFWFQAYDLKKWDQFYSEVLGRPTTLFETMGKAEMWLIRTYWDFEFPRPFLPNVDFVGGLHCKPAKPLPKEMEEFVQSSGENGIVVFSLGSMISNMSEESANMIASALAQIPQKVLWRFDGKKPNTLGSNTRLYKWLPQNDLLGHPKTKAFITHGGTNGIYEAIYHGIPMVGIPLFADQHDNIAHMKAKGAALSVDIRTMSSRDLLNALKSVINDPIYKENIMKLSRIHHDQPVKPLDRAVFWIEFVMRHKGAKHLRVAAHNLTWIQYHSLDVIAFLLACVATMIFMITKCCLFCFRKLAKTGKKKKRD

[2] = oral T, humans; cited from earlier work
human hepatocytes = assay: T metabolism in primary human hepatocytes (metabolite formation); details: for In vitro formation from T: primary human hepatocyte
Description: as §1

T production = details: normal men, single injection 300 μg/kg subcutaneous; cited from earlier work
UGT2B7 = UGT2B7 (Homo sapiens, UniProt P16662)
UGT2B15 = UGT2B15 (Homo sapiens, UniProt P54855)
Description: Oxazepam was used as a probe substrate for UGT2B15 activity by measuring oxazepam glucuronide formation (m/z 463.3→287.1, 269.1; DP 70; CE 20) with 10 μM oxazepam.

[3] = T200 + D (200 mg oral T with dutasteride)
[4] = T800 + D (800 mg oral T with dutasteride)

UGT2B15, sequence (P54855 24-530): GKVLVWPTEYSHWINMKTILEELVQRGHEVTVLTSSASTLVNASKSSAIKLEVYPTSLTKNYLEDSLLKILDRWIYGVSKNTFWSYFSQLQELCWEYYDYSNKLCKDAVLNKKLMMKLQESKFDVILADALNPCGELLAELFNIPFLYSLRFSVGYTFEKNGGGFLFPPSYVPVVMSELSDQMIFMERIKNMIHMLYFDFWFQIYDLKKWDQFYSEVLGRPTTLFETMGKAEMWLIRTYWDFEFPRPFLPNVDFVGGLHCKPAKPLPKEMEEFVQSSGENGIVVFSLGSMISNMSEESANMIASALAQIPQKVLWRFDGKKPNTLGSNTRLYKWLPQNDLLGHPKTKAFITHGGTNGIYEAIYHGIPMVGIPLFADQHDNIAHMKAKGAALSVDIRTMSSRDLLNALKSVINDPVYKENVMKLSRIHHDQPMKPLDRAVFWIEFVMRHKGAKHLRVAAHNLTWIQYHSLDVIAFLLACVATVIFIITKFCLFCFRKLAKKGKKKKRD
UGT2B7, sequence (P16662 24-529): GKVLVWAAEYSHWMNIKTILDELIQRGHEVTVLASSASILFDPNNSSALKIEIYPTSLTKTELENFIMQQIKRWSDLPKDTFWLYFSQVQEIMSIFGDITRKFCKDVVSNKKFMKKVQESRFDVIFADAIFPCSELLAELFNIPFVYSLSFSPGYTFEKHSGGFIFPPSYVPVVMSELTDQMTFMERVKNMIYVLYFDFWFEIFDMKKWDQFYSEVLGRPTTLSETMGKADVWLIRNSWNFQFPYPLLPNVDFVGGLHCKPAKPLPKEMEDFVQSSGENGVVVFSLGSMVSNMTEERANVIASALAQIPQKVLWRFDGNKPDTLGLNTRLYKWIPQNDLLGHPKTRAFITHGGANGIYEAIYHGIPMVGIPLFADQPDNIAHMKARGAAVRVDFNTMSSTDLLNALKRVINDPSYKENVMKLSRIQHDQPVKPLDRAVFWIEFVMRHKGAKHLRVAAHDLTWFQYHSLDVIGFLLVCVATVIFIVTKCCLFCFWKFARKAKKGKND

| SMILES | Effect of dutasteride co-treatment on metabolite formation from T (5-AR type 1 and 2) | Absolute level in pooled serum, fold of baseline eugonadal state ([1]; T200) | Average serum AUC0-24 h ([1]; T200) | Absolute level in pooled serum, fold of baseline eugonadal state ([1]; T800) | AUC 0-24 h ([1]; T200) | t½ ([1]; T200 (200 mg oral T)) | AUC 0-24 h ([1]; T200 + D) | t½ [1, 3] | AUC 0-24 h ([1]; T800) | t½ ([1]; T800 (800 mg oral T)) | AUC 0-24 h ([1]; T800 + D) | t½ [1, 4] | further results |
| --- | --- | --- | --- | --- | --- | --- | --- | --- | --- | --- | --- | --- | --- |
| C[C@]12CCC(=O)C[C@@H]1CC[C@@H]1[C@@H]2CC[C@]2(C)[C@@H](O)CC[C@@H]12 [DHT, 5α-Dihydrotestosterone] | significant decreases | 0.6 fold | 26.5 nmol/L-h | 2.2 fold | 0.0265 µM·h | 17.6 h | 0.0096 µM·h | 24.0 h | 0.0874 µM·h | 6.9 h | 0.0266 µM·h | 17.9 h | Average AUC0-24 h with dutasteride, % lower than T alone ([1]; T200): 64%; Average AUC0-24 h with dutasteride, % lower than T alone ([1]; T800): 70%; AUC0-24 h at T800, fold higher than with T200 [1]: 3.3 fold; Cmax ([1]; T200): 2 nM; Tmax ([1]; T200): 2 h; Cmax ([1]; T200 + D): 0.8 nM; Tmax ([1]; T200 + D): 4 h; Cmax ([1]; T800): 8.4 nM; Tmax ([1]; T800): 2 h; Cmax ([1]; T800 + D): 1.8 nM; Tmax ([1]; T800 + D): 4 h |
| C[C@]12CC[C@H]3[C@@H](CCC4=CC(=O)CC[C@@]43C)[C@@H]1CC[C@@H]2O [T, Testosterone, reference compound] |  |  |  |  | 0.0816 µM·h | 12.0 h | 0.0847 µM·h | 7.0 h | 0.1689 µM·h | 5.3 h | 0.2938 µM·h | 5.7 h | Contribution of UGT2B17 to intestinal glucuronidation (UGT2B17): 100%; Change in serum T levels with dutasteride ([1]; 200 mg T dose): no significant increase; Increase in circulating T concentrations ([1]; 4-fold increase in dose (200 to 800 mg)): 2 fold; CL/F ([1]; 200 mg, T200): 106000 mL/min; CL/F ([1]; 800 mg, T800): 259000 mL/min; CL/F ([1]; T200 + D): 120000 mL/min; CL/F ([1]; T800 + D): 147000 mL/min; Cmax ([1]; T200): 6 nM; Tmax ([1]; T200): 4 h; Cmax ([1]; T200 + D): 8.8 nM; Cmax ([1]; T800): 16.8 nM; Cmax ([1]; T800 + D): 33 nM; Tmax ([1]; T800 + D): 2 h; Oral bioavailability [2]: 2-8% |
| C[C@]12CCC(=O)C=C1CC[C@@H]1[C@@H]2CC[C@]2(C)C(=O)CC[C@@H]12 [AED, Androstenedione] | No significant changes | 2.3 fold | 373.7 nmol/L-h | 14.9 fold | 0.3737 µM·h | 12.7 h | 1.6349 µM·h | 8.3 h | 1.5518 µM·h | 6.8 h | 10.8444 µM·h | 5.2 h | In vitro formation from T (human hepatocytes): 46%; Circulating level, fold higher with dutasteride vs T alone ([1]; T200+D and T800+D): 5.7 fold; AUC0-24 h at T800, fold higher than with T200 [1]: 4.2 fold; Cmax ([1]; T200): 66.3 nM; Tmax ([1]; T200): 2 h; Cmax ([1]; T200 + D): 200 nM; Tmax ([1]; T200 + D): 2 h; Cmax ([1]; T800): 280 nM; Tmax ([1]; T800): 1 h; Cmax ([1]; T800 + D): 2300 nM; Tmax ([1]; T800 + D): 2 h |
| CC(=O)Nc1ccc(C[C@H](NC(=O)[C@H](CO)NC(=O)[C@@H](Cc2cccnc2)NC(=O)[C@@H](Cc2ccc(Cl)cc2)NC(=O)[C@@H](Cc2ccc3ccccc3c2)NC(C)=O)C(=O)N[C@H](Cc2ccc(NC(C)=O)cc2)C(=O)N[C@@H](CC(C)C)C(=O)N[C@@H](CCCCNC(C)C)C(=O)N2CCC[C@H]2C(=O)N[C@H](C)C(N)=O)cc1 [acyline] (Ac-[d2Nal][dPhe(4-Cl)][d3Pal]S[Phe(4-NH2)](Ac)[dPhe(4-NH2)](Ac)L[Lys(iPr)]P[dA]-NH2) |  |  |  |  |  |  |  |  |  |  |  |  | Duration of suppression of T production (T production): ≥ 15 days |
| C[C@]12CC[C@@H](O[C@@H]3O[C@H](C(=O)O)[C@@H](O)[C@H](O)[C@H]3O)C[C@@H]1CC[C@@H]1[C@@H]2CC[C@]2(C)C(=O)CC[C@@H]12 [AG, Androsterone glucuronide] | significant decreases | 9.5 fold | 12,111 nmol/L-h | 29.7 fold | 12.1108 µM·h | 4.9 h |  | 4.5 h | 65.4278 µM·h | 4.5 h | 14.8677 µM·h | 6.3 h | Average AUC0-24 h with dutasteride, % with respect to T alone [1]: 21%; Average AUC0-24 h with dutasteride, % as compared to T alone [1]: 22%; AUC0-24 h, fold higher as compared to T AUC0-24 h [1]: 389 fold |
| C[C@]12CC[C@H]3[C@@H](C[C@@H](O)C4=CC(=O)CC[C@@]43C)[C@@H]1CC[C@@H]2O [6β-OH-T, 6β-hydroxytestosterone] | significant decreases |  |  |  |  |  |  |  |  |  |  |  |  |
| C[C@]12C=CC(=O)N[C@@H]1CC[C@@H]1[C@@H]2CC[C@]2(C)[C@@H](C(=O)Nc3cc(C(F)(F)F)ccc3C(F)(F)F)CC[C@@H]12 [dutasteride, reference compound] |  |  |  |  |  |  |  |  |  |  |  |  | Inhibition of 5-AR type 1 and 2 mediated metabolism of T (5-AR type 1 and 2; co-treatment with T): complete inhibition |
| C[C@]12CC[C@H]3[C@@H](CCC4=CC(=O)CC[C@@]43C)[C@@H]1CC[C@@H]2O[C@@H]1O[C@H](C(=O)O)[C@@H](O)[C@H](O)[C@H]1O [TG, Testosterone glucuronide] | No significant changes | 78 fold | 857.2 nmol/L-h | 277 fold | 0.8572 µM·h | 4.4 h | 0.3734 µM·h | 4.3 h | 14.163 µM·h | 3.6 h | 8.5897 µM·h | 2.7 h | Level in hepatocyte media, fold lower than AG (human hepatocytes; human hepatocytes, T-treated): 3.7 fold; In vitro formation from T (human hepatocytes): 42%; Average AUC0-24 h with dutasteride, % with respect to T alone [1]: 43%; Average AUC0-24 h with dutasteride, % as compared to T alone [1]: 60%; Proportion of total T-related species in circulation ([1]; T dosed orally to men with experimental hypogonadism): 13%; Increase in TG/T ratio of dose-normalized AUC0-24 h ([1]; changing dose from 200 to 800 mg): 9.3 fold; AUC0-24 h, fold higher as compared to T AUC0-24 h [1]: 85 fold |
| C[C@]12CC[C@@H](O[C@@H]3O[C@H](C(=O)O)[C@@H](O)[C@H](O)[C@H]3O)C[C@H]1CC[C@@H]1[C@@H]2CC[C@]2(C)C(=O)CC[C@@H]12 [EtioG, Etiocholanolone glucuronide] |  | 13 fold | 2160 nmol/L-h | 39.5 fold | 2.1604 µM·h | 5.2 h |  | 10.5 h | 14.9815 µM·h | 7.8 h | 27.0917 µM·h | 9.9 h | Average AUC0-24 h with dutasteride, % with respect to T alone [1]: 151%; Average AUC0-24 h with dutasteride, % as compared to T alone [1]: 180%; AUC0-24 h, fold higher as compared to T AUC0-24 h [1]: 87 fold |
| C[C@]12CCC(=O)C[C@@H]1CC[C@@H]1[C@@H]2CC[C@]2(C)[C@@H](O[C@@H]3O[C@H](C(=O)O)[C@@H](O)[C@H](O)[C@H]3O)CC[C@@H]12 [DHTG, DHT-glucuronide] |  | 7.5 fold |  | 40.6 fold |  |  |  |  |  |  |  |  |  |
| Cc1ccc(NC(=O)c2ccc(CN3CCN(C)CC3)cc2)cc1Nc1nccc(-c2cccnc2)n1 [imatinib] |  |  |  |  |  |  |  |  |  |  |  |  | Inhibition of naloxone (UGT2B7) glucuronidation (UGT2B7): No significant inhibition; Inhibition of oxazepam (UGT2B15) glucuronidation (UGT2B15): No significant inhibition |
| C[C@]12CC[C@@H](O)C[C@@H]1CC[C@@H]1[C@@H]2CC[C@]2(C)C(=O)CC[C@@H]12 [A, Androsterone] |  |  |  |  |  |  |  |  |  |  |  |  | Circulating level, % lower in dutasteride treated samples vs T alone ([1]; T200+D): 30%; Circulating level, % lower in dutasteride treated samples vs T alone ([1]; T800+D): 87% |
